How the values were obtained:
[1] = system: Colorectal cancer stem cells (CSC); assay: Stem cell markers in primary colorectal cancer stem cells (qPCR, Western blot); assay type: cell-based; details: 10 μM, 48 hours
Procedure: […]: qPCR, CD44 downregulation after treatment of colorectal CSC with anacardic acid, 48 h. […]: qPCR, ALCAM (activated leucocyte cell adhesion molecule) after treatment of colorectal CSC with anacardic acid, 48 h. FIG. 17C: qPCR, EPCAM (epithelial cell adhesion molecule) after treatment of colorectal CSC with anacardic acid, 48 h. FIG. 17D: Western blot, CD44 downregulation after treatment of colorectal CSC with anacardic acid, 48 h.
Informed consent primary colorectal tumor material was obtained during operation and was transferred to lab. Colorectal cancer stem cells (CSC) were isolated accordingly Cammareri et al, 2008 and treated with 10 μM anacardic acid within 48 hours.

[2] = system: SUMO-conjugated proteins, SUMO-conjugated form of TFAP2A in BT549 cells; assay: Western blot of SUMO-conjugated proteins in BT549 cells; assay type: cell-based, human; details: vs vehicle
Procedure: FIG. 16. Anacardic Acid Inhibits SUMO-conjugated Proteins. Western blots were performed on protein extracts of BT549 cells treated with vehicle (V) or anacardic acid (AA) and reacted with antibodies for SUMO1, TFAP2A or GAPDH, as indicated. Equal amounts of protein were loaded in each lane. […] GAPDH control indicates equal loading of protein. MW indicates molecular weight markers.
Western blots were performed as previously described (Cyr et al., 2014; Kulak et al., 2013). For immunoprecipitations anti-TFAP2A, anti-GFP antibody (Life Technologies) or IgG (#sc-2025, Santa Cruz Biotechnology) were cross-linked with Dynabeads protein A (Life Technologies). MCF7 protein was incubated with Dynabeads protein A-Abs complex, protein complexes were washed with DPBS (Gibco) with 0.01% Tween (Research Products International Corp.), and eluted with SDS loading buffer.
Cells were plated ([…]/10 cm2) and treated with 10 μM gingolic or anacardic acid (Sigma) for 2-4 days and collected for qPCR, Western blot and FACS analysis.

[3] = system: BT20 xenografts; assay: BT20 xenografts, animals gavaged; assay type: in vivo; details: BT20 xenografts in nude mice, animals gavaged vs vehicle; FIG. 8B
From the text: (§1) FIGS. 8A-8D. SUMO Inhibitors Repressed Outgrowth of Xenografts. FIG. 8A. […] FIG. 8B. Tumor-free survival of nude mice (n=5 per group) inoculated with BT20 cells with animals gavaged with AA vs. vehicle. FIG. 8C. IOWA-1T cells were pre-treated with anacardic acid (AA) or vehicle and mice were followed until requiring euthanasia due to tumor size (Overall Survival). […] FIG. 8D. Nude mice were inoculated with 1×10^6, 5×10^5, or 2.5×10^5 IOWA-1T cells and animals were gavaged with either vehicle or AA; vehicle-gavaged mice developed tumors in 5, 10 and 12 days, respectively.
To address the effects of GA and AA on tumor initiation, BT20 cells were pretreated with GA or AA compared to vehicle prior to inoculation of xenografts in nude mice. As noted in FIG. 8A, pretreatment of the cells repressed the formation of tumor xenografts, whereas, vehicle treated cells formed xenografts with a median time of 8 weeks. […] We created a breast carcinoma cell line (IOWA-1T) from the basal tumor-derived cells used in FIG. 6A. The IOWA-1T cell line rapidly forms locally advanced tumors in nude mice. Identical experiments using the IOWA-1T basal cell line confirmed that either pre-treating the cancer cells or gavaging animals with AA repressed tumor initiation of xenografts (FIGS. 8C and 8D). […]

[4] = system: IOWA-1T xenografts; assay: IOWA-1T xenografts, animals gavaged; assay type: in vivo; details: nude mice inoculated with 1×10^6, 5×10^5 or 2.5×10^5 IOWA-1T cells, gavaged vs vehicle; p=0.025; FIG. 8D
From the text: as §1
To address the effects of GA and AA on tumor initiation, BT20 cells were pretreated with GA or AA compared to vehicle prior to inoculation of xenografts in nude mice. As noted in FIG. 8A, pretreatment of the cells repressed the formation of tumor xenografts, whereas, vehicle treated cells formed xenografts with a median time of 8 weeks. […] We created a breast carcinoma cell line (IOWA-1T) from the basal tumor-derived cells used in FIG. 6A. The IOWA-1T cell line rapidly forms locally advanced tumors in nude mice. Identical experiments using the IOWA-1T basal cell line confirmed that either pre-treating the cancer cells or gavaging animals with AA repressed tumor initiation of xenografts (FIGS. 8C and 8D).
Statistical analysis was performed using the two-sided Student's T-test for continuous variables. […]

## CCCCCCCCCCCCCCCc1cccc(O)c1C(=O)O [AA, Anacardic acid (C15:0)]
[1]; FIG. 17A
  CD44 by qPCR: down regulated
[1]; FIG. 17B
  ALCAM by qPCR: down regulated
[1]; FIG. 17C
  EPCAM by qPCR: down regulated
[1]; FIG. 17D
  CD44 by Western blot: reduction
[2]; Western blot FIG. 16
  SUMO conjugated form of TFAP2A: inhibited
  overall expression of TFAP2A: decrease slightly
[2]; Western blot SUMO1 antibody, FIG. 16
  SUMO conjugation of proteins globally: inhibited
[3]
  tumor formation (tumor-free survival): failed to form tumors
[4]
  tumor formation: failed to form tumors
